Target: T1, Apo REV-ERBβ LBD (Homo sapiens, UniProt Q14995)
T1 construct: The human REV-ERBβ LBD (residues 381 to 579) was previously cloned; 6xHis with 3C protease cleavage site (N, cleaved yes); made in house; host or cells: E. coli BL21(DE3)
T1 sequence (Q14995 381-579): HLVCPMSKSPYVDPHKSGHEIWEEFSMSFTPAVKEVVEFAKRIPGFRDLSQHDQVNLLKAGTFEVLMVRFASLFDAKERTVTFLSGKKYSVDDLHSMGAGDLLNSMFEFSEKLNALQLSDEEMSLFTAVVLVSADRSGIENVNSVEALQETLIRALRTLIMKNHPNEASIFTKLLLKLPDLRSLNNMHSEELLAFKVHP
Experiment: ITC, NCoR ID peptides with apo REV-ERBβ LBD
Type: binding
Source text: The human REV-ERBβ LBD (residues 381 to 579) was previously cloned into the pET46 vector ([18]). The mouse NCoR RID (residues 1942 to 2208 in the X50 splice variant), which has 87% sequence identity to human NCoR RID (100% sequence identity in the ID motifs), was previously cloned into the pET32 vector ([29]). NCoR RID mutants were generated by site-directed mutagenesis: The ID1 CoRNR box motif was mutated from […] to […] (ΔID1 and ΔID1ΔID2), and the ID2 CoRNR box motif was mutated from LEDIIRKAL to TEDTTRKAL (ΔID2 and ΔID1ΔID2), as these mutations were previously reported to disrupt CoRNR box binding ([10], [30]). Heme (Sigma-Aldrich, no. 51280) was prepared either as a 1 mM stock in dimethyl sulfoxide (DMSO) stored at 4°C or 50 mM stock in 0.2 M NaOH (solutions prepared in 0.2 M NaOH were always made fresh immediately before the experiment), where indicated. […] Human embryonic kidney (HEK) 293T cells (American Type Culture Collection, no. CRL-11268) were cultured in Dulbecco’s modified eagle medium (DMEM) supplemented with 10% fetal bovine serum, 2 mM L-glutamine, and 1% penicillin-streptomycin at 37°C and 5% CO2 under standard culture conditions. The pcDNA3.1^+ expression vector containing full-length human REV-ERBβ ([31]) and the pGL3-Bmal1-luciferase construct containing the Bmal1 promoter (−816 to +99 of the mouse Bmal1 promoter region) were used in HEK293T cell transfections. Site-directed mutagenesis was performed to mutate the proximal RORE (pRORE mutant), distal RORE (dRORE mutant), or both (p/dRORE mutant) in the pGL3-Bmal1-luciferase construct based on a previous study ([6]) where the ROREs were mutated to disrupt REV-ERBα activity.
Human REV-ERBβ LBD was expressed in BL21(DE3) Escherichia coli cells with an N-terminal hexahistidine (6xHis) tag separated by a 3C protease cleavage site. Expression was performed using auto-induction media: Cells were grown at 37°C for 5 hours, 30°C for 1 hour, and 18°C for 16 hours before harvesting by centrifugation. Pellets were resuspended in potassium phosphate lysis buffer [40 mM potassium phosphate (pH 7.4), 500 mM KCl, 15 mM imidazole, and 1 mM dithiothreitol (DTT)] supplemented with leupeptin, pepstatin A, lysozyme, and deoxyribonuclease (DNase) I and sonicated on ice. […] A 5-ml aliquot of 6xHis-tagged protein was purified by size exclusion chromatography using a Superdex 75 column equilibrated in time-resolved fluorescence energy transfer (TR-FRET) assay buffer [20 mM potassium phosphate (pH 7.4), 50 mM KCl, and 0.5 mM EDTA]; purified aliquots were stored at −80°C for TR-FRET assays. To cleave the 6xHis tag from the remaining protein, it was incubated overnight with 3C protease (generated in-house) via dialysis; then, protein was reloaded onto the HisTrap columns, and the flow-through was collected. Last, aggregates were removed by size exclusion chromatography using a Superdex 75 column and Hepes gel filtration buffer [20 mM Hepes (pH 7.4), 50 mM KCl, and 0.5 mM EDTA]. Greater than 95% purity was confirmed by SDS-PAGE. Protein was aliquoted and stored at −80°C.
ITC experiments were performed using a MicroCal iTC200. All experiments were solvent-matched and contained 0.1% DMSO (peptide vehicle) and 0.2% 0.2 M solution of NaOH (heme vehicle) final concentrations. NITPIC software ([37]) was used to calculate baselines and integrate curves and prepare experimental data for fitting in SEDPHAT, which was used to generate final binding affinity and thermodynamic parameter measurements ([38]).Final figures were exported to GUSSI for publication-quality figure preparation ([39]).
NCoR ID1 and NCoR ID2 peptides were prepared at 50 μM in assay buffer [20 mM Hepes (pH 7.4), 50 mM KCl, 0.5 mM EDTA, and 5 mM tris(2-carboxyethyl)phosphine (TCEP)], and REV-ERBβ LBD was prepared at 500 μM. […]

[1] = ID1 peptide, pH 7.4, 25°C, 95% CI
[2] = ID2 peptide, 25°C, fitted estimate due to low c value, 95% CI n.d.

affinity of apo LBD for peptide (in words)	thermodynamic profile of peptide binding (in words), apo	ΔG, free energy of binding [1] [kcal/mol]	ΔH, enthalpy of binding [1] [kcal/mol]	TΔS (ID1 peptide, pH 7.4, T constant at 25°C, 95% CI) [kcal/mol]	TΔS [2] [kcal/mol]	ΔG, free energy of binding [2] [kcal/mol]	ΔH, enthalpy of binding [2] [kcal/mol]	Compound
high affinity	enthalpically driven and exothermic	-8.6	-7.7	0.88	–	–	–	Ac-RTHRLITLADHICQIITQDFARN-NH2 [NCoR ID1 peptide]
low affinity	enthalpically driven and exothermic	–	–	–	-4.2	-5.6	-9.7	CC[C@H](C)[C@H](NC(=O)[C@H](CC(=O)O)NC(=O)[C@H](CCC(=O)O)NC(=O)[C@H](CC(C)C)NC(=O)CNC(=O)[C@H](CC(C)C)NC(=O)[C@H](CC(N)=O)NC(=O)[C@H](CO)NC(=O)[C@H](C)NC(=O)[C@@H]1CCCN1C(=O)[C@H](CC(=O)O)NC(C)=O)C(=O)N[C@H](C(=O)N[C@@H](CCCNC(=N)N)C(=O)N[C@@H](CCCCN)C(=O)N[C@@H](C)C(=O)N[C@@H](CC(C)C)C(=O)N[C@@H](CCSC)C(=O)NCC(=O)N[C@@H](CO)C(=O)N[C@@H](Cc1ccccc1)C(=O)N[C@@H](CC(=O)O)C(=O)N[C@@H](CC(=O)O)C(=O)N[C@@H](CCCCN)C(N)=O)[C@@H](C)CC [NCoR ID2 peptide]

— article PMC7840129, “Structural basis for heme-dependent NCoR binding to the transcriptional repressor REV-ERBβ” (Science Advances, 2021)
